Experimental data taken from patent publication US20260212886A1, “MAGNETIC RECORDING MEDIUM AND CARTRIDGE” (Sony Group Corporation, priority 2023, published 2026).

Test: Acid dissociation constant (pKa) by potentiometric titration (JIS K 0070:1992)
Source text: The acid dissociation constant (pKa) is a parameter indicating the degree of dissociation of an acid. When the ionization constant of an acid is Ka, the acid dissociation constant is defined by pKa=−log10 Ka.

Row | pKa | SMILES
1 | ≤ 5 | O=C(O)c1ccc(O)cc1 [4-hydroxybenzoic acid]
2 | ≤ 5 | O=C(O)CC(O)(CC(=O)O)C(=O)O [Citric acid, citric acid]
3 | ≤ 5 | O=C(O)c1cccc(C(=O)O)c1 [Isophthalic acid, isophthalic acid]

Row | SMILES | pKa
4 | O=P(O)(O)c1ccccc1 [Phenylphosphonic acid] | ≤ 5
